Measurements: ChEMBL document CHEMBL5723584 (2023)

What was measured:
Conditions in all cases: Compound concentration 1.0 uM
[1] = molecular target: Cyclin-dependent kinase-like 3 (Homo sapiens) (UniProt Q8IVW4); test: activity of CDKL3(h) at 1.0 µM in the Eurofins Kinase panel
[2] = molecular target: Casein kinase I isoform epsilon (Homo sapiens) (UniProt P49674); test: activity of CK1epsilon(h) at 1.0 µM in the Eurofins Kinase panel
[3] = molecular target: CDK6/cyclin D3 (Homo sapiens) (UniProt P30281+Q00534); test: activity of CDK6/cyclinD3(h) at 1.0 µM in the Eurofins Kinase panel; type: protein-complex assay
[4] = molecular target: Phosphorylase b kinase gamma catalytic chain, testis/liver isoform (Homo sapiens) (UniProt P15735); test: activity of PhKgamma2(h) at 1.0 µM in the Eurofins Kinase panel
[5] = molecular target: Death-associated protein kinase 3 (Homo sapiens) (UniProt O43293); test: activity of ZIPK(h) at 1.0 µM in the Eurofins Kinase panel
[6] = molecular target: STE20/SPS1-related proline-alanine-rich protein kinase (Homo sapiens) (UniProt Q9UEW8); test: activity of STK39(h) at 1.0 µM in the Eurofins Kinase panel
[7] = molecular target: Serine/threonine-protein kinase MRCK beta (Homo sapiens) (UniProt Q9Y5S2); test: activity of MRCKbeta(h) at 1.0 µM in the Eurofins Kinase panel
[8] = molecular target: Serine/threonine-protein kinase LATS2 (Homo sapiens) (UniProt Q9NRM7); test: activity of LATS2(h) at 1.0 µM in the Eurofins Kinase panel
[9] = molecular target: Tyrosine-protein kinase ABL1 (Homo sapiens) (UniProt P00519); test: activity of Abl(h) at 1.0 µM in the Eurofins Kinase panel
[10] = molecular target: PI3K p110 beta/p85 alpha (Homo sapiens) (UniProt P27986+P42338); test: activity of PI3 Kinase (p110beta/p85alpha)(h) at 1.0 µM in the Eurofins Kinase panel; type: protein-complex assay
[11] = molecular target: Mitogen-activated protein kinase 10 (Homo sapiens) (UniProt P53779); test: activity of JNK3(h) at 1.0 µM in the Eurofins Kinase panel
[12] = molecular target: Rhodopsin kinase GRK7 (Homo sapiens) (UniProt Q8WTQ7); test: activity of GRK7(h) at 1.0 µM in the Eurofins Kinase panel
[13] = molecular target: Serine/threonine-protein kinase N1 (Homo sapiens) (UniProt Q16512); test: activity of PRK1(h) at 1.0 µM in the Eurofins Kinase panel
Chain of Serine/threonine-protein kinase N1 (Homo sapiens) (Q16512 2-942 limits assumed): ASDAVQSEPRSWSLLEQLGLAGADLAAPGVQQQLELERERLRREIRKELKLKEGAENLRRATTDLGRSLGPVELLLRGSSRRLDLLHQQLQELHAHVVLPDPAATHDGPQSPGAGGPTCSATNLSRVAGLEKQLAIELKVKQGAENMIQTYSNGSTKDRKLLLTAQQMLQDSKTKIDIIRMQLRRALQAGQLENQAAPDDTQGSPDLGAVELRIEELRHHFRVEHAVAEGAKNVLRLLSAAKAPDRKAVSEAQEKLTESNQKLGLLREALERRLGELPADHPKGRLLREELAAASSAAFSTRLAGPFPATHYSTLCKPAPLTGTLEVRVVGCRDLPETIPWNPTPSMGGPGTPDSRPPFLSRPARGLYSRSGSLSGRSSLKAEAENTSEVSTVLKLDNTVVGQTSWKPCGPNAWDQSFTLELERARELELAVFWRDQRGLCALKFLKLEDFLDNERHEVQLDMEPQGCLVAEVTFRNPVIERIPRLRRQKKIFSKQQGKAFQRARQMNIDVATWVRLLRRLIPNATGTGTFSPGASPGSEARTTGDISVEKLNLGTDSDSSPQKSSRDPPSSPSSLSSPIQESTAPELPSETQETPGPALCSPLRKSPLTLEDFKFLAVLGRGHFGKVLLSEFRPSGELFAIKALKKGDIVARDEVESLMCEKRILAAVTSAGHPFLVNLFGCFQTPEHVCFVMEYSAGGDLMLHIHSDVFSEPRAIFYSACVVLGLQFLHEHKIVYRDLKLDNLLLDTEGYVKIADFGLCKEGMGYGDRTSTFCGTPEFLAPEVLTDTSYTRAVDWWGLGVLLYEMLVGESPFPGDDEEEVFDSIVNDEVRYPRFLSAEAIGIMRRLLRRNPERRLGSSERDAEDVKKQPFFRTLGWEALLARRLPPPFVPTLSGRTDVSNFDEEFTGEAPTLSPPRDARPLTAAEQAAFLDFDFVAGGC

[14] = molecular target: Cyclin-dependent kinase-like 2 (Homo sapiens) (UniProt Q92772); test: activity of CDKL2(h) at 1.0 µM in the Eurofins Kinase panel
[15] = molecular target: DNA-dependent protein kinase catalytic subunit (Homo sapiens) (UniProt P78527); test: activity of DNA-PK(h) at 1.0 µM in the Eurofins Kinase panel
[16] = molecular target: eIF-2-alpha kinase GCN2 (Homo sapiens) (UniProt Q9P2K8); test: activity of GCN2(h) at 1.0 µM in the Eurofins Kinase panel
[17] = molecular target: Rhodopsin kinase GRK1 (Homo sapiens) (UniProt Q15835); test: activity of GRK1(h) at 1.0 µM in the Eurofins Kinase panel
[18] = molecular target: Aurora kinase B (Homo sapiens, UniProt Q96GD4); test: activity of Aurora-B(h) at 1.0 µM in the Eurofins Kinase panel
Chain of Aurora kinase B (Q96GD4 whole entry): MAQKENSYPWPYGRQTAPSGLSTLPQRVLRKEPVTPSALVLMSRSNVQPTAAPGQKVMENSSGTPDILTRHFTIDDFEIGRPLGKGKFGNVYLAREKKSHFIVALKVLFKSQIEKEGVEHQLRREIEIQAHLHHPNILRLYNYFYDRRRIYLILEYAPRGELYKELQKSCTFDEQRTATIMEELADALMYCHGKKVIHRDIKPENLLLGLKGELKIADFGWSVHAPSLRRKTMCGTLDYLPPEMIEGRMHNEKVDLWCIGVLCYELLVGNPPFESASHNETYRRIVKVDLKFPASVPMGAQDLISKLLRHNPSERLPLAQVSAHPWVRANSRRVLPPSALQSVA

[19] = molecular target: MAPK/MAK/MRK overlapping kinase (Homo sapiens) (UniProt Q9UQ07); test: activity of MOK(h) at 1.0 µM in the Eurofins Kinase panel
[20] = molecular target: Serine/threonine-protein kinase B-raf (Homo sapiens) (UniProt P15056); test: activity of B-Raf(h) at 1.0 µM in the Eurofins Kinase panel
Chain of Serine/threonine-protein kinase B-raf (Homo sapiens) (P15056 whole entry): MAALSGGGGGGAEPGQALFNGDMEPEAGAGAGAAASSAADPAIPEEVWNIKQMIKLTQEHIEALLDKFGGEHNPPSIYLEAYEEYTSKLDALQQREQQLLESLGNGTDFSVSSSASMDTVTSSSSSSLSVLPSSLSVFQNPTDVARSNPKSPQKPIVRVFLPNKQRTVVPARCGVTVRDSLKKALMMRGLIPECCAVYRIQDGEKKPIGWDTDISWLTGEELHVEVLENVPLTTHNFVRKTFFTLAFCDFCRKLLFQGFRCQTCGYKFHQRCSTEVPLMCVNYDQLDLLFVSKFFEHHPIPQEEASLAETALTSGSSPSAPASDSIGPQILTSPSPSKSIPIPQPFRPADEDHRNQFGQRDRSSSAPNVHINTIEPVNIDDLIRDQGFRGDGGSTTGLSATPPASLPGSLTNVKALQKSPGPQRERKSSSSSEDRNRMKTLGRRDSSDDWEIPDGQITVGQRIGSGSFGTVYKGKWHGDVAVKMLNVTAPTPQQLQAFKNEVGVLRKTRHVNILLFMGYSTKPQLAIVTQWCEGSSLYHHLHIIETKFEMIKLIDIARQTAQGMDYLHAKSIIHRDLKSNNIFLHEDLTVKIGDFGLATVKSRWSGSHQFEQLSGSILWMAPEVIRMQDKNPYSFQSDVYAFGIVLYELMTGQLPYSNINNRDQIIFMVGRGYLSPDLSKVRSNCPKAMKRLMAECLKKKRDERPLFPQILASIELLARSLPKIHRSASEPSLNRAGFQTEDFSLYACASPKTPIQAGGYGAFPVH

[21] = molecular target: Receptor-type tyrosine-protein kinase FLT3 (Homo sapiens) (UniProt P36888); test: activity of Flt3(h) at 1.0 µM in the Eurofins Kinase panel
[22] = molecular target: Rho-associated protein kinase 2 (Homo sapiens) (UniProt O75116); test: activity of ROCK-II(h) at 1.0 µM in the Eurofins Kinase panel
[23] = molecular target: Cyclin-dependent kinase-like 1 (Homo sapiens) (UniProt Q00532); test: activity of CDKL1(h) at 1.0 µM in the Eurofins Kinase panel
[24] = molecular target: Tyrosine-protein kinase SYK (Homo sapiens) (UniProt P43405); test: activity of Syk(h) at 1.0 µM in the Eurofins Kinase panel
[25] = molecular target: Epithelial discoidin domain-containing receptor 1 (Homo sapiens) (UniProt Q08345); test: activity of DDR1(h) at 1.0 µM in the Eurofins Kinase panel
[26] = molecular target: Phosphatidylinositol 3-kinase C2 domain-containing subunit gamma (Homo sapiens) (UniProt O75747); test: activity of PI3KC2gamma(h) at 1.0 µM in the Eurofins Kinase panel
[27] = molecular target: Insulin receptor-related protein (Homo sapiens) (UniProt P14616); test: activity of IRR(h) at 1.0 µM in the Eurofins Kinase panel
[28] = molecular target: Cyclin-dependent kinase 2/cyclin A (Homo sapiens) (UniProt P24941+P20248+P78396); test: activity of CDK2/cyclinA(h) at 1.0 µM in the Eurofins Kinase panel; type: protein-complex assay
[29] = molecular target: Protein kinase C epsilon type (Homo sapiens) (UniProt Q02156); test: activity of PKCepsilon(h) at 1.0 µM in the Eurofins Kinase panel
[30] = molecular target: Phosphatidylinositol 4-phosphate 3-kinase C2 domain-containing subunit alpha (Homo sapiens) (UniProt O00443); test: activity of PI3KC2alpha(h) at 1.0 µM in the Eurofins Kinase panel
Chain of Phosphatidylinositol 4-phosphate 3-kinase C2 domain-containing subunit alpha (Homo sapiens) (O00443 whole entry, the tested form may be a part): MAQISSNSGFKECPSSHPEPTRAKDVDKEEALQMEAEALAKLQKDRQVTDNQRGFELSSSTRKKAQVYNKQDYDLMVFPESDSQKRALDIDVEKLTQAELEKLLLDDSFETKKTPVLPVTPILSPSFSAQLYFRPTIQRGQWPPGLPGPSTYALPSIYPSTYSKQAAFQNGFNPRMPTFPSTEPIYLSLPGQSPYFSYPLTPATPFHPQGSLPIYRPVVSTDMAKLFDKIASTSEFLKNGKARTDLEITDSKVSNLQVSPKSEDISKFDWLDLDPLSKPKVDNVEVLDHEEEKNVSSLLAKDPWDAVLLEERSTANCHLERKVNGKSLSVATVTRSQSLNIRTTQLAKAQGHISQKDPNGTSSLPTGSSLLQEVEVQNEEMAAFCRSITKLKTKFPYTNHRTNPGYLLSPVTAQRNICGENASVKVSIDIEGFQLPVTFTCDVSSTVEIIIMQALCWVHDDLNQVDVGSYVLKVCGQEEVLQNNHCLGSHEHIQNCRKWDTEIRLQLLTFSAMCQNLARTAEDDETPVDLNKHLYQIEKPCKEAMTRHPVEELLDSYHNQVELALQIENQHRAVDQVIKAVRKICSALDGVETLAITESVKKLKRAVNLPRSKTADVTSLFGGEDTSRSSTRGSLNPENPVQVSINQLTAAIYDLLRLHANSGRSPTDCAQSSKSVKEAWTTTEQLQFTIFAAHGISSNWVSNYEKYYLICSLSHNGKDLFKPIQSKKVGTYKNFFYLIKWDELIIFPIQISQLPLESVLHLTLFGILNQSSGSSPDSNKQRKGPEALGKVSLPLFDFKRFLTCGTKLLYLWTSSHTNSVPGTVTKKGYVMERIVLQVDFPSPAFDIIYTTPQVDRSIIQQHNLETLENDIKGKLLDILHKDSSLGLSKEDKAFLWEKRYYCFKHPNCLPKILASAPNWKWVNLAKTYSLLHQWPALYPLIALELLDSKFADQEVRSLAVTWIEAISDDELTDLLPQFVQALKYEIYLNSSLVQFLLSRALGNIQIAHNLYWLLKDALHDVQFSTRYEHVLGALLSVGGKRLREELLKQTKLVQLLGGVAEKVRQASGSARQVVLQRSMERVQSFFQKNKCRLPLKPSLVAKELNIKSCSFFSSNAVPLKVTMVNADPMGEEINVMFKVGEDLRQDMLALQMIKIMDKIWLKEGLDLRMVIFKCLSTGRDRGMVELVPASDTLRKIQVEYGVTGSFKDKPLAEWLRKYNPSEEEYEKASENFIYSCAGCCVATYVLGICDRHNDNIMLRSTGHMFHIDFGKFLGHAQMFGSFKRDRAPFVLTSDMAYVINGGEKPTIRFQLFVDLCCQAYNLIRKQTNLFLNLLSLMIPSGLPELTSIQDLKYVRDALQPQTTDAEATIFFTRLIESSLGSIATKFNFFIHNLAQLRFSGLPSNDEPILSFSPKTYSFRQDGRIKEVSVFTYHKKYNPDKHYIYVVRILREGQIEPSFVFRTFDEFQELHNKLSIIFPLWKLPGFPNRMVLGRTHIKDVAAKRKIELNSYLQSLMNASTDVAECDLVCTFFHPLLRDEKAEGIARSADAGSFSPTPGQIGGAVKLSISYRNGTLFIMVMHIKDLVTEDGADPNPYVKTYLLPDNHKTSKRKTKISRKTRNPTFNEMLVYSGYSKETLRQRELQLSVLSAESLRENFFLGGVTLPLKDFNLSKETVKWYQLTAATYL

[31] = molecular target: Mitogen-activated protein kinase kinase kinase 21 (Homo sapiens) (UniProt Q5TCX8); test: activity of MLK4(h) at 1.0 µM in the Eurofins Kinase panel
Chain of Mitogen-activated protein kinase kinase kinase 21 (Homo sapiens) (Q5TCX8 whole entry): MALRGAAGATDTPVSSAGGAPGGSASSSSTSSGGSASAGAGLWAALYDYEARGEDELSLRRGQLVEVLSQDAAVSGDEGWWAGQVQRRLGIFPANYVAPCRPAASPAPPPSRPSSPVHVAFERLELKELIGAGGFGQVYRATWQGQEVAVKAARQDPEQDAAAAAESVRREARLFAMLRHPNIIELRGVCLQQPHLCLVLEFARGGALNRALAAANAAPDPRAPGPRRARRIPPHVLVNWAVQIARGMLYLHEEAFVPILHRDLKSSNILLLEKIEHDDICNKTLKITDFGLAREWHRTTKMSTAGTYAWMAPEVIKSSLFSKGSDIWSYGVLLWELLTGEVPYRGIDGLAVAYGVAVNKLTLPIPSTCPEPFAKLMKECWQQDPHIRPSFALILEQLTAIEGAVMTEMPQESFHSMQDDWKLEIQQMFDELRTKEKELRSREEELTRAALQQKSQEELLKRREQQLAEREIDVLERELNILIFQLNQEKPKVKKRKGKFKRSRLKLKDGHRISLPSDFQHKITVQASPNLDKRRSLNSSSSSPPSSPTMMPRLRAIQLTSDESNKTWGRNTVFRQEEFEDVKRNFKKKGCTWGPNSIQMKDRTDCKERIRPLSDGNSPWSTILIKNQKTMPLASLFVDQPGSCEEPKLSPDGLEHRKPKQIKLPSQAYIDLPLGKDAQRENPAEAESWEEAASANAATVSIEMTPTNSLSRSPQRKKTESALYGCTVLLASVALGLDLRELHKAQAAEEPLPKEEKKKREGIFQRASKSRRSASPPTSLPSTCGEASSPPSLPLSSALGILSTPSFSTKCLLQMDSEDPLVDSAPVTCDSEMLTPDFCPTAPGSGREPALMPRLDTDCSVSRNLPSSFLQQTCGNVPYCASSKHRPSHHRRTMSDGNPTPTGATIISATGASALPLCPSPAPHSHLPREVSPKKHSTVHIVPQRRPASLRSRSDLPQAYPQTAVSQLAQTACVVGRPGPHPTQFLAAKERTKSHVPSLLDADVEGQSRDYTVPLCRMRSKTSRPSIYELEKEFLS

[32] = molecular target: Protein kinase C beta type (Homo sapiens) (UniProt P05771); test: activity of PKCbetaII(h) at 1.0 µM in the Eurofins Kinase panel
[33] = molecular target: Tau-tubulin kinase 1 (Homo sapiens) (UniProt Q5TCY1); test: activity of TTBK1(h) at 1.0 µM in the Eurofins Kinase panel
[34] = molecular target: Serine/threonine-protein kinase tousled-like 2 (Homo sapiens) (UniProt Q86UE8); test: activity of TLK2(h) at 1.0 µM in the Eurofins Kinase panel
[35] = molecular target: Receptor tyrosine-protein kinase erbB-2 (Homo sapiens) (UniProt P04626); test: activity of ErbB2(h) at 1.0 µM in the Eurofins Kinase panel
[36] = molecular target: Serine/threonine-protein kinase BRSK2 (Homo sapiens) (UniProt Q8IWQ3); test: activity of BrSK2(h) at 1.0 µM in the Eurofins Kinase panel
[37] = molecular target: Serine/threonine-protein kinase 32B (Homo sapiens) (UniProt Q9NY57); test: activity of STK32B(h) at 1.0 µM in the Eurofins Kinase panel
[38] = molecular target: 3-phosphoinositide-dependent protein kinase 1 (Homo sapiens) (UniProt O15530); test: activity of PDK1(h) at 1.0 µM in the Eurofins Kinase panel

activity [1]: 79% | activity [2]: 96% | activity [3]: 90% | activity [4]: 98% | activity [6]: 102% | activity [7]: 100% | activity [8]: 102% | activity [9]: 99% | activity [10]: 102% | activity [11]: 88% | activity [12]: 98% | activity [13]: 91% | activity [14]: 80% | activity [15]: 107% | activity [16]: 101% | activity [17]: 86% | activity [18]: 109% | activity [19]: 90% | activity [20]: 110% | activity [21]: 84% | activity [22]: 96% | activity [23]: 99% | activity [24]: 66% | activity [25]: 98% | activity [26]: 103% | activity [27]: 110% | activity [28]: 87% | activity [29]: 97% | activity [30]: 102% | activity [31]: 112% | activity [32]: 87% | activity [33]: 96% | activity [34]: 92% | activity [35]: 97% | activity [36]: 83% | activity [37]: 115% | activity [38]: 105%
Structure (SMILES): Cc1cc2c(-c3ccc(NC(=O)[C@H](N)CC(C)(C)C)cc3C)ccnc2[nH]1
activity [5]: 94%
